From patent publication US20160291027A1, “METHODS FOR […] ABILITY OF A Z[…] COMPOUND TO TREAT CANCER” (Eisai R&D Management Co., Ltd., priority 2007, published 2016)

Test system: cell lines which carried a BRAF V600E mutation
Assay: Cell growth assay (CellTiter-Glo or methylene blue) in solid cancer cell lines
Type: cell-based
Conditions: 96 hours, 0.3-10000 nM
Method: In a separate experiment, Compounds 091 and 106 were tested in solid cancer cell lines from different tissue types (shown in FIG. 3B for 21 cell lines for compound 091 and 19 cell lines for compound 106). All cell lines were introduced into 96-well plates and grown in the absence or continuous presence of 0.3-10000 nM of either compound 091 or compound 106 for 96 hours. Cell growth was assessed using a CellTiter-Glo® Luminescent Cell Viability Assay (Promega) or a methylene blue assay. IC50 values were determined as the concentration of a substance which inhibits cell growth by 50% compared to untreated cell populations.

## CNc1cc(O)c2c(c1)/C=C/C[C@H](O)[C@H](O)C(=O)/C=C\[C@@H](C)[C@H](C)OC2=O [Compound 091]
  Sensitivity of BRAF V600E cell lines (concentration range): low-nM or sub-μM concentration range
